In patent US6444663B1, “Tricyclic compounds for the inhibition of the ICE/ced-3 protease family of enzymes” (Idun Pharmaceuticals, Inc., priority 1996, dated 2002):

What was measured:
mICE [1] = target: T1, mICE (Mus musculus, UniProt P29452); test: Fluorescence enzyme assay, IC50 determination, ICE; type: biochemical; conditions: recombinant enzyme, substrate Acetyl-Tyr-Val-Ala-Asp-AMC, 30 min preincubation, room temperature
T1 sequence (P29452 123-296 limits assumed): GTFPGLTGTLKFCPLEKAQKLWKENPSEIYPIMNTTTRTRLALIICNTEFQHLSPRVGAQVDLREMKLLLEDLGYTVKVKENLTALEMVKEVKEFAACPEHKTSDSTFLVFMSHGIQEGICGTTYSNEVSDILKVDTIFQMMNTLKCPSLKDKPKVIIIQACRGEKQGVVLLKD
T1 sequence (P29452 315-402 limits assumed): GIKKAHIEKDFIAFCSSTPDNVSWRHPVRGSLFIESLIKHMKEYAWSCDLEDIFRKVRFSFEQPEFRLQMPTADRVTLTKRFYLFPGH
Description: (§1) Fluorescence enzyme assays detecting the activity of the compounds of Formula 1 utilizing the recombinant ICE and CPP32 enzymes were performed essentially according to Thornberry et al. (Nature, 356:768:774 (1992)) and Nicholson et al. (Nature, 376:37-43 (1995)) respectively, (herein incorporated by reference) in 96 well microtiter plates. The substrate is Acetyl-Tyr-Val-Ala-Asp-amino-4-methylcoumarin (AMC) for the ICE assay and Acetyl-Asp-Glu-Val-Asp-amino-4-methylcoumarin for the CPP32, Mch2, Mch3 and Mch5 assays. Enzyme reactions were run in ICE buffer (25 mM HEPES, 1 mM EDTA, 0.1% CHAPS, 10% sucrose, pH 7.5) containing 2 mM DTT at room temperature in duplicate. The assays were performed by mixing the following components:
(§2) 50 μL ICE, Mch2, Mch5, CPP32 (18.8, 38, 8.1 and 0.153 nM concentrations, respectively) or Mch3 (1 unit) enzyme in ICE buffer containing either 8.0 (ICE, Mch2, Mch3, CPP32) or 20 (Mch5) mM DTT;
(§3) 50 μL compound of Formula 1 or ICE buffer (control); and
(§4) 100 μL of 20 μM substrate.
(§5) The enzyme and the compound of Formula 1 to be assayed were allowed to preincubate in the microtitre plate wells for 30 minutes at room temperature prior to the addition of substrate to initiate the reaction. Fluorescent AMC product formation was monitored for one hour at room temperature by measuring the fluorescence emission at 460 nm using an excitation wavelength of 360 nm. The fluorescence change in duplicate (control) wells were averaged and the mean values were plotted as a function of inhibitor concentration to determine the inhibitor concentration producing 50% inhibition (IC50).
(§6) The reference compound for this assay was Cbz-ValAlaAsp-H and the values are denoted in Table 1 as “Reference”.

CPP32 [2] = target: T2, CPP32 (Homo sapiens, UniProt P42574); test: Fluorescence enzyme assay, IC50 determination, CPP32; type: biochemical; conditions: recombinant enzyme, substrate Acetyl-Asp-Glu-Val-Asp-AMC, 30 min preincubation, room temperature
T2 sequence (P42574 29-175 limits assumed): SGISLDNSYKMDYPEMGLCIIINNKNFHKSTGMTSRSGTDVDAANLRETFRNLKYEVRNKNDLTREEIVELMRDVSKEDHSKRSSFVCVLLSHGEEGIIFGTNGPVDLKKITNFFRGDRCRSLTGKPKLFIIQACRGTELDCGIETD
T2 sequence (P42574 176-277 limits assumed): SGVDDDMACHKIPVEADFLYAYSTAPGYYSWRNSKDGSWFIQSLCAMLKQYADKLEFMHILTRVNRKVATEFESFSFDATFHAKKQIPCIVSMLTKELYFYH
Description: as §1, §2, §3, §4, §5, §6

MCH-2 [3] = target: T3, MCH-2 (Homo sapiens, UniProt P55212); test: Fluorescence enzyme assay, IC50 determination, Mch2; type: biochemical; conditions: substrate Acetyl-Asp-Glu-Val-Asp-AMC, 30 min preincubation, room temperature
T3 sequence (P55212 24-179 limits assumed): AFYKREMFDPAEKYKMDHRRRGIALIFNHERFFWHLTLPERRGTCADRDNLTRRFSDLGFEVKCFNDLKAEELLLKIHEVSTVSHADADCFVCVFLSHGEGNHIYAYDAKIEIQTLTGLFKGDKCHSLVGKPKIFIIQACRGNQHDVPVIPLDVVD
T3 sequence (P55212 194-293 limits assumed): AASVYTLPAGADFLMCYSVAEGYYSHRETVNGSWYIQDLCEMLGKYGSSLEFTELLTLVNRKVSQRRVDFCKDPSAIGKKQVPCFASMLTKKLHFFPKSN
Description: as §1, §2, §3, §4, §5, §6

MCH-3 = target: T4, MCH-3 (Homo sapiens, UniProt P55210); test: Fluorescence enzyme assay, IC50 determination, Mch3; type: biochemical; conditions: substrate Acetyl-Asp-Glu-Val-Asp-AMC, 30 min preincubation, room temperature
T4 sequence (P55210 24-198 limits assumed): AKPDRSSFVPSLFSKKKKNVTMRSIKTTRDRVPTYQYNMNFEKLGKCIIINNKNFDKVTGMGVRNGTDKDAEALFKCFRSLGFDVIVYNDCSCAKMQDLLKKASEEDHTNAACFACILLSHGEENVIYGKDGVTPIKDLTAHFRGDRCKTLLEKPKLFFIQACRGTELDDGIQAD
T4 sequence (P55210 207-303 limits assumed): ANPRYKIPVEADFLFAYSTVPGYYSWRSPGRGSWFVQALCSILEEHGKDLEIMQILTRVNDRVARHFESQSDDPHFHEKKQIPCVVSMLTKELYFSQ
Description: as §1, §2, §3, §4, §5, §6

MCH-5 [4] = target: T5, MCH-5 (Homo sapiens, UniProt Q14790); test: Fluorescence enzyme assay, IC50 determination, Mch5; type: biochemical; conditions: substrate Acetyl-Asp-Glu-Val-Asp-AMC, 30 min preincubation, room temperature
T5 sequence (Q14790 217-374 limits assumed, species assumed): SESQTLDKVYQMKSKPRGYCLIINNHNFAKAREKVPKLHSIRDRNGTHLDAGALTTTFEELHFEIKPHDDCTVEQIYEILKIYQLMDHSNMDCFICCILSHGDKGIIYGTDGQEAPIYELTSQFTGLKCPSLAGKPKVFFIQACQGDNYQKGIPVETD
T5 sequence (Q14790 385-479 limits assumed, species assumed): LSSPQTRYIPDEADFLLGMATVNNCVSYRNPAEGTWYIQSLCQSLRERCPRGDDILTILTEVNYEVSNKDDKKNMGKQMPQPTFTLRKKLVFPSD
Description: as §1, §2, §3, §4, §5, §6

mICE [5] = target: T1, mICE; test: Continuous assay for Ki and k3 of irreversible inhibitors, ICE; type: biochemical
Excerpt: (§7) B. Determination of the dissociation constant Ki and irreversible rate constant k3 for irreversible inhibitors
(§8) For the irreversible inhibition of a ICE/ced-3 Family Protease enzyme with a competitive irreversible inhibitor; using the model represented by the following formulas: [drawing 14]
(§9) The product formation at time t may be expressed as: [formula]
(§10) where E, I, EI and E-I denote the active enzyme, inhibitor, non-covalent enzyme-inhibitor complex and covalent enzyme-inhibitor adduct, respectively. The Ki value is the overall dissociation constant of the reversible binding steps, and k3 is the irreversible rate constant. The [S] and Ks values are the substate concentration and dissociation constant of the substrate bound to the enzyme, respectively. [E]^T is the total enzyme concentration.
(§11) The above equations were used to determine the Ki and k3 values of a given inhibitor bound to a ICE/ced-3 family protease. Thus, a continuous assay was run for sixty minutes at various concentrations of the inhibitor and the substrate. The assay was formulated essentially the same as described above for generating the data in Table 1, except that the reaction was initiated by adding the enzyme to the substrate-inhibitor mixture. […]

CPP32 [6] = target: T2, CPP32; test: Continuous assay for Ki and k3 of irreversible inhibitors, CPP32; type: biochemical
Excerpt: as §7, §8, §9, §10, §11

MCH-5 [7] = target: T5, MCH-5; test: Continuous assay for Ki and k3 of irreversible inhibitors, Mch5; type: biochemical
Excerpt: as §7, §8, §9, §10, §11

MCH-2 [8] = target: T3, MCH-2; test: Continuous assay for Ki and k3 of irreversible inhibitors, Mch2; type: biochemical
Excerpt: as §7, §8, §9, §10, §11

[9] = continuous assay 60 min, reaction initiated by adding enzyme

Structure (SMILES)	IC50 (mICE [1])	melting point	IC50 (CPP32 [2])	IC50 (MCH-2 [3])	IC50 (MCH-3)	IC50 (MCH-5 [4])	k3/Ki (mICE [5]; Example 31)	Ki (mICE [5]; [9])	k3/Ki (CPP32 [6]; Example 31)	Ki (CPP32 [6]; [9])	k3/Ki (MCH-5 [7]; Example 31)	Ki (MCH-5 [7]; [9])	k3/Ki (MCH-2 [8]; Example 31)	Ki (MCH-2 [8]; [9])
O=C1CC(NC(=O)C2CCc3cccc4c3N2C(=O)C(NC(=O)OCc2ccccc2)CC4)C(O)O1 (mixture of isomers) [Example 28, (3R,S-cis)-6-Benzyloxycarbonylamino-5-oxo-2,3,4,5,6,7,8-hexahydro-1H-azepino[3,2,1-hi]quinoline-3-carbonyl)-amino]-4-oxo-butanoic acid]	26 nM	120 to 123 °C (dec.)	437 nM	32000 nM	1110 nM	2060 nM	–	–	–	–	–	–	–	–
O=C(O)C[C@H](NC(=O)OCc1ccccc1)C(=O)N[C@H]1CCc2cccc3c2N(C1=O)[C@H](C(=O)N[C@H]1CC(=O)OC1O)C3 (stereo partly drawn) [Example 13]	96 nM	140 to 144 °C (dec.)	0.52 nM	–	84 nM	1190 nM	–	–	–	–	–	–	–	–
CC(=O)N[C@@H](CC(=O)O)C(=O)N[C@H]1CCc2cccc3c2N(C1=O)[C@H](C(=O)N[C@H]1CC(=O)OC1O)C3 (stereo partly drawn) [Example 7]	694 nM	160 to 175 °C (dec.)	1.4 nM	6470 nM	145 nM	2090 nM	–	–	–	–	–	–	–	–
O=C(O)CCC(=O)N[C@H]1CCc2cccc3c2N(C1=O)[C@H](C(=O)N[C@H]1CC(=O)OC1O)C3 (stereo partly drawn) [Example 10]	571 nM	145 to 160 °C (dec.)	245 nM	1810 nM	2830 nM	7980 nM	–	–	–	–	–	–	–	–
O=C1C[C@H](NC(=O)[C@@H]2Cc3cccc4c3N2C(=O)[C@@H](NC(=O)OCc2ccccc2)CC4)C(O)O1 (stereo partly drawn) [Example 3]	19 nM	101 to 104 °C	1030 nM	40100 nM	6960 nM	> 10000 nM	–	–	–	–	–	–	–	–

Further lines, results first:

IC50 (mICE [1])	melting point	IC50 (CPP32 [2])	IC50 (MCH-2 [3])	IC50 (MCH-3)	IC50 (MCH-5 [4])	k3/Ki (mICE [5]; Example 31)	Ki (mICE [5]; [9])	k3/Ki (CPP32 [6]; Example 31)	Ki (CPP32 [6]; [9])	k3/Ki (MCH-5 [7]; Example 31)	Ki (MCH-5 [7]; [9])	k3/Ki (MCH-2 [8]; Example 31)	Ki (MCH-2 [8]; [9])	Structure (SMILES)
45 nM	78 to 81 °C	780 nM	> 10000 nM	32600 nM	18700 nM	–	–	–	–	–	–	–	–	O=C(CCc1ccccc1)N[C@H]1CCc2cccc3c2N(C1=O)[C@H](C(=O)N[C@H]1CC(=O)OC1O)C3 (stereo partly drawn) [Example 16]
–	–	–	–	–	–	1.2e+07 M⁻¹ s⁻¹	0.5 nM	960000 M⁻¹ s⁻¹	12 nM	98000 M⁻¹ s⁻¹	22 nM	25000 M⁻¹ s⁻¹	33 nM	O=C(O)CC(NC(=O)[C@@H]1Cc2cccc3c2N1C(=O)[C@@H](NC(=O)OCc1ccccc1)CC3)C(=O)CF (stereo partly drawn) [Example 31]
159 nM	204 to 205 °C (dec.)	8770 nM	> 50000 nM	> 50000 nM	4630 nM	–	–	–	–	–	–	–	–	O=C1C[C@H](NC(=O)[C@@H]2Cc3cccc4c3N2C(=O)[C@@H](NC(=O)c2ccccc2)CC4)C(O)O1 (stereo partly drawn) [Example 25]
–	109 to 111 °C (dec.)	–	–	–	–	–	–	–	–	–	–	–	–	O=C(O)C[C@H](NC(=O)[C@@H]1Cc2cccc3c2N1C(=O)[C@@H](NC(=O)OCc1ccccc1)CC3)C(=O)COP(=O)(c1ccccc1)c1ccccc1 [Example 34, 3-[(2S-cis)-[5-Benzyloxycarbonylamino-1,2,3,4,5,6,7-hexahydro-4-oxoazapino[3,2,1-hi]indole-2-carbonyl]amino]5-(diphenylphosphinyl) oxy-4-oxo-pentanoic acid]
–	103 to 105 °C (dec.)	–	–	–	–	–	–	–	–	–	–	–	–	CC(C)(C)OC(=O)C[C@@H](/C=N/NC(N)=O)NC(=O)[C@@H]1Cc2cccc3c2N1C(=O)[C@@H](NC(=O)c1cccc2ccccc12)CC3 [Example 20]
3070 nM	210 to 215 °C (dec.)	3870 nM	> 10000 nM	> 50000 nM	> 50000 nM	–	–	–	–	–	–	–	–	CC(=O)N[C@H]1CCc2cccc3c2N(C1=O)[C@H](C(=O)N[C@H]1CC(=O)OC1O)C3 (stereo partly drawn) [Example 19]
10 nM	202 to 203 °C (dec.)	2910 nM	> 50000 nM	12300 nM	1090 nM	–	–	–	–	–	–	–	–	O=C1C[C@H](NC(=O)[C@@H]2Cc3cccc4c3N2C(=O)[C@@H](NC(=O)c2cccc3ccccc23)CC4)C(O)O1 (stereo partly drawn) [Example 22]
